Measured values reported in patent publication US10035790B2, “RORγ modulators” (BRISTOL-MYERS SQUIBB COMPANY, priority 2012, dated 2018).

target: T1, ligand binding domain of human RORγ (A262-S507) (Homo sapiens, UniProt P51449); test: General RORγ SPA binding assay (competition with [3H]25-hydroxycholesterol); settings: RORγ SPA binding assay, inhibition of [3H]25-hydroxycholesterol binding; read-out: IC50
T1 construct: made in house; host or cells: E. coli
T1 sequence (P51449 262-507): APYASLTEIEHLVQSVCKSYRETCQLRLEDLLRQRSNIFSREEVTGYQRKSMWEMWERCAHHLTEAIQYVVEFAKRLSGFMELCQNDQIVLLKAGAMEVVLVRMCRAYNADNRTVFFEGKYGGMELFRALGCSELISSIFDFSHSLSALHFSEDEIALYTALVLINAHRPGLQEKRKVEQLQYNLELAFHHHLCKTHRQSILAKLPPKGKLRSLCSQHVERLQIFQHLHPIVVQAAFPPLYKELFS
Method in brief: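 Step one: compound meets 50 nM nickel-purified, His-tagged protein from E. coli for 15 min at room temperature (PBS, 0.5% fatty acid free BSA). Step two: radioligand is added for another 15 min. Step three: SPA beads are added for 30 min before scintillation reading and IC50 fitting.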

SMILES	IC50 [nM]
Cc1ncc(C(F)(F)CNc2ccnc(C(F)(F)F)n2)c(C2CCN(C(=O)Nc3c(F)cccc3F)CC2)n1 [Compound N18, N-(2,6-Difluorophenyl)-4-[5-(1,1-difluoro-2-{[2-(trifluoromethyl)pyrimidin-4-yl]amino}ethyl)-2-methylpyrimidin-4-yl]piperidine-1-carboxamide]	16.2
Cc1ncc(C(F)(F)CNc2nccc(C(F)(F)F)n2)c(C2CCN(C(=O)Cc3c(F)cccc3F)CC2)n1 [Compound N21, N-[2-(4-{1-[(2,6-Difluorophenyl)acetyl]piperidin-4-yl}-2-methylpyrimidin-5-yl)-2,2-difluoroethyl]-4-(trifluoromethyl)pyrimidin-2-amine]	14.2
Cc1ncc(C(F)COc2cccc(C(F)(F)F)n2)c(C2CCN(C(=O)Nc3c(F)cccc3F)CC2)n1 (centres unmarked) [Compound N22, N-(2,6-Difluorophenyl)-4-[5-(1-fluoro-2-{[6-(trifluoromethyl)pyridin-2-yl]oxy}ethyl)-2-methylpyrimidin-4-yl]piperidine-1-carboxamide]	7
Cc1ncc(/C(COc2cccc(C(F)(F)F)n2)=N/O)c(C2CCN(C(=O)Nc3c(F)cccc3F)CC2)n1 [Compound N26, N-(2,6-difluorophenyl)-4-{5-[(1Z)—N-hydroxy-2-{[6-(trifluoromethyl)pyridin-2-yl]oxy}ethanimidoyl]-2-methylpyrimidin-4-yl}piperidine-1-carboxamide]	141
CC(=O)N1CCC(NC(COc2cccc(C(F)(F)F)n2)c2cnc(C)nc2C2CCN(C(=O)Nc3c(F)cccc3F)CC2)CC1 (centres unmarked) [Compound N28, 4-[5-(1-[(1-Acetylpiperidin-4-yl)amino]-2-{[6-(trifluoromethyl)pyridin-2-yl]oxy}ethyl)-2-methylpyrimidin-4-yl]-N-(2,6-difluorophenyl)piperidine-1-carboxamide]	71
Nc1ncc(C(N)COc2cccc(C(F)(F)F)n2)c(C2CCN(C(=O)Oc3ccccc3F)CC2)n1 (centres unmarked) [Compound N29, 2-Fluorophenyl 4-[2-amino-5-(1-amino-2-{[6-(trifluoromethyl)pyridin-2-yl]oxy}ethyl)pyrimidin-4-yl]piperidine-1-carboxylate]	10000
Cc1ncc(C(O)(CN)COc2cccc(C(F)(F)F)n2)c(C2CCN(C(=O)Nc3c(F)cccc3F)CC2)n1 (centres unmarked) [Compound N34, 4-{5-[2-Amino-1-hydroxy-1-({[6-(trifluoromethyl)pyridin-2-yl]oxy}methyl)ethyl]-2-methylpyrimidin-4-yl}-N-(2,6-difluorophenyl)piperidine-1-carboxamide]	12.8
Cc1ncc(C(O)(CN)COc2cccc(C(F)(F)F)n2)c(C2CCN(C(=O)Cc3c(F)cccc3F)CC2)n1 (centres unmarked) [Compound N35, 1-Amino-2-(4-{1-[(2,6-difluorophenyl)acetyl]piperidin-4-yl}-2-methylpyrimidin-5-yl)-3-{[6-(trifluoromethyl)pyridin-2-yl]oxy}propan-2-ol]	5.5

The next lines start with the values.

IC50 [nM]	SMILES
4.1	Cc1ncc(C(F)(F)COc2cccc(C(F)(F)F)n2)c(C2CCN(C(=O)Nc3c(F)cccc3F)CC2)n1 [Compound N14, N-(2,6-Difluorophenyl)-4-[5-(1,1-difluoro-2-{[6-(trifluoromethyl)pyridin-2-yl]oxy}ethyl)-2-methylpyrimidin-4-yl]piperidine-1-carboxamide]
10.9	Cc1ncc(C(F)(F)COc2cccc(C(F)(F)F)n2)c(C2CCN(C(=O)Nc3c(F)cccc3C(F)(F)F)CC2)n1 [Compound N15, 4-[5-(1,1-Difluoro-2-{[6-(trifluoromethyl)pyridin-2-yl]oxy}ethyl)-2-methylpyrimidin-4-yl]-N-[2-fluoro-6-(trifluoromethyl)phenyl]piperidine-1-carboxamide]
6.2	Nc1ncc(C(F)(F)COc2ccnc(C(F)(F)F)n2)c(C2CCN(C(=O)Nc3c(F)cccc3F)CC2)n1 [Compound N17, 4-[2-Amino-5-(1,1-difluoro-2-{[2-(trifluoromethyl)pyrimidin-4-yl]oxy}ethyl)pyrimidin-4-yl]-N-(2,6-difluorophenyl)piperidine-1-carboxamide]
6.5	Cc1ncc(C(F)(F)CNc2ccnc(C(F)(F)F)n2)c(C2CCN(C(=O)Cc3c(F)cccc3F)CC2)n1 [Compound N19, N-[2-(4-{1-[(2,6-Difluorophenyl)acetyl]piperidin-4-yl}-2-methylpyrimidin-5-yl)-2,2-difluoroethyl]-2-(trifluoromethyl)pyrimidin-4-amine]
21.2	Cc1ncc(C(F)(F)CNc2nccc(C(F)(F)F)n2)c(C2CCN(C(=O)Nc3c(F)cccc3F)CC2)n1 [Compound N20, N-(2,6-Difluorophenyl)-4-[5-(1,1-difluoro-2-{[4-(trifluoromethyl)pyrimidin-2-yl]amino}ethyl)-2-methylpyrimidin-4-yl]piperidine-1-carboxamide]
12.3	Cc1ncc(C(N)COc2cccc(C(F)(F)F)n2)c(C2CCN(C(=O)Nc3c(F)cccc3F)CC2)n1 (centres unmarked) [Compound N23, 4-[5-(1-Amino-2-{[6-(trifluoromethyl)pyridin-2-yl]oxy}ethyl)-2-methylpyrimidin-4-yl]-N-(2,6-difluorophenyl)piperidine-1-carboxamide]
9.3	Nc1ncc(C(N)COc2cccc(C(F)(F)F)n2)c(C2CCN(C(=O)Nc3c(F)cccc3F)CC2)n1 (centres unmarked) [Compound N24, 4-[2-Amino-5-(1-amino-2-{[6-(trifluoromethyl)pyridin-2-yl]oxy}ethyl)pyrimidin-4-yl]-N-(2,6-difluorophenyl)piperidine-1-carboxamide]
18.2	CNC(COc1cccc(C(F)(F)F)n1)c1cnc(N)nc1C1CCN(C(=O)Nc2c(F)cccc2F)CC1 (centres unmarked) [Compound N27, 4-{2-Amino-5-[1-(methylamino)-2-{[6-(trifluoromethyl)pyridin-2-yl]oxy}ethyl]pyrimidin-4-yl}-N-(2,6-difluorophenyl)piperidine-1-carboxamide]
10.9	Cc1ncc(C(O)(CCO)COc2cccc(C(F)(F)F)n2)c(C2CCN(C(=O)Nc3c(F)cccc3F)CC2)n1 (centres unmarked) [Compound N30, N-(2,6-Difluorophenyl)-4-{5-[1,3-dihydroxy-1-({[6-(trifluoromethyl)pyridin-2-yl]oxy}methyl)propyl]-2-methylpyrimidin-4-yl}piperidine-1-carboxamide]
620	Cc1ncc(C(O)(CCN)COc2cccc(C(F)(F)F)n2)c(C2CCN(C(=O)Nc3c(F)cccc3F)CC2)n1 (centres unmarked) [Compound N31, 4-(5-(4-Amino-2-hydroxy-1-(6-(trifluoromethyl)pyridin-2-yloxy)butan-2-yl)-2-methylpyrimidin-4-yl)-N-(2,6-difluorophenyl)piperidine-1-carboxamide]
5.7	Cc1ncc(C(O)(CO)COc2cccc(C(F)(F)F)n2)c(C2CCN(C(=O)Nc3c(F)cccc3F)CC2)n1 (centres unmarked) [Compound N32, N-(2,6-Difluorophenyl)-4-{5-[1,2-dihydroxy-1-({[6-(trifluoromethyl)pyridin-2-yl]oxy}methyl)ethyl]-2-methylpyrimidin-4-yl}piperidine-1-carboxamide]
2.9	Cc1ncc(C(O)(CN=[N+]=[N-])COc2cccc(C(F)(F)F)n2)c(C2CCN(C(=O)Nc3c(F)cccc3F)CC2)n1 (centres unmarked) [Compound N33, 4-{5-[2-Azido-1-hydroxy-1-({[6-(trifluoromethyl)pyridin-2-yl]oxy}methyl)ethyl]-2-methylpyrimidin-4-yl}-N-(2,6-difluorophenyl)piperidine-1-carboxamide]
